Experimental data published in PubChem BioAssay AID2060618 (Molecular Pharmacology Branch, DTP, NCI, 2025).
Values joined by “and” are separate entries in the source; they are usually repeats but may differ in a detail not shown here. Equal values may be shown once.

Test system: 454973-116-R2-J3-PDC spheroids, percent test/control viability
Assay: Anticancer human tumor 454973-116-R2-J3-PDC patient-derived pancreatic carcinoma cell line growth inhibition [CLK]
Details: spheroids with HUVEC and MSC; for viability, T/C: stronger effect = lower value
How it was run: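 Patient-derived tumor cells grown as complex spheroids with HUVEC endothelial cells and mesenchymal stem cells, treated with drug combinations. Concentrations descend in half-log steps from near clinical Cmax, or from 10 microM if Cmax unknown.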

[1] = curve of first compound, second compound 0.0316 µM
[2] = curve of first compound, second compound 0.1 µM
[3] = curve of first compound, second compound 0.316 µM
[4] = curve of first compound, second compound 1 µM
[5] = curve of first compound, second compound 3.16 µM
[6] = curve of first compound, second compound 10 µM
[7] = second compound 0.0316 µM, first compound 0.0316 µM
[8] = second compound 0.0316 µM, first compound 0.1 µM
[9] = second compound 0.0316 µM, first compound 0.316 µM
[10] = second compound 0.0316 µM, first compound 1 µM
[11] = second compound 0.0316 µM, first compound 3.16 µM
[12] = second compound 0.0316 µM, first compound 10 µM
[13] = second compound 0.1 µM, first compound 0.0316 µM
[14] = second compound 0.1 µM, first compound 0.1 µM
[15] = second compound 0.1 µM, first compound 0.316 µM
[16] = second compound 0.1 µM, first compound 1 µM
[17] = second compound 0.1 µM, first compound 3.16 µM
[18] = second compound 0.1 µM, first compound 10 µM
[19] = second compound 0.316 µM, first compound 0.0316 µM
[20] = second compound 0.316 µM, first compound 0.1 µM
[21] = second compound 0.316 µM, first compound 0.316 µM
[22] = second compound 0.316 µM, first compound 1 µM
[23] = second compound 0.316 µM, first compound 3.16 µM
[24] = second compound 0.316 µM, first compound 10 µM
[25] = second compound 1 µM, first compound 0.0316 µM
[26] = second compound 1 µM, first compound 0.1 µM
[27] = second compound 1 µM, first compound 0.316 µM
[28] = second compound 1 µM, first compound 1 µM
[29] = second compound 1 µM, first compound 3.16 µM
[30] = second compound 1 µM, first compound 10 µM
[31] = second compound 3.16 µM, first compound 0.0316 µM
[32] = second compound 3.16 µM, first compound 0.1 µM
[33] = second compound 3.16 µM, first compound 0.316 µM
[34] = second compound 3.16 µM, first compound 1 µM
[35] = second compound 3.16 µM, first compound 3.16 µM
[36] = second compound 3.16 µM, first compound 10 µM
[37] = second compound 10 µM, first compound 0.0316 µM
[38] = second compound 10 µM, first compound 0.1 µM
[39] = second compound 10 µM, first compound 0.316 µM
[40] = second compound 10 µM, first compound 1 µM
[41] = second compound 10 µM, first compound 3.16 µM
[42] = second compound 10 µM, first compound 10 µM
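Also: spheroids exposed to compounds for 7 days before readout.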

CC1(C)CCC(CN2CCN(c3ccc(C(=O)NS(=O)(=O)c4ccc(NCC5CCOCC5)c([N+](=O)[O-])c4)c(Oc4cnc5[nH]ccc5c4)c3)CC2)=C(c2ccc(Cl)cc2)C1 + CN1CCN(c2cc(C(=O)Nc3cc4cc(-c5cnn(C)c5)ccc4cn3)ccn2)CC1
IC50 [1]: 7120 nM
IC50 [2]: 5230 nM
IC50 [3]: < 31.6 nM
IC50 [4]: < 31.6 nM
IC50 [5]: < 31.6 nM
IC50 [6]: < 31.6 nM
viability, T/C [7]: 99.1%
viability, T/C [8]: 93.8%
viability, T/C [9]: 96.2%
viability, T/C [10]: 110%
viability, T/C [11]: 105%
viability, T/C [12]: 28.6%
viability, T/C [13]: 80%
viability, T/C [14]: 74.3%
viability, T/C [15]: 69.3%
viability, T/C [16]: 84%
viability, T/C [17]: 72.7%
viability, T/C [18]: 20.2%
viability, T/C [19]: 1.7%
viability, T/C [20]: 1.6%
viability, T/C [21]: 2.41%
viability, T/C [22]: 3.39%
viability, T/C [23]: 0.47%
viability, T/C [24]: 2.29%
viability, T/C [25]: 0.12%
viability, T/C [26]: 0.14%
viability, T/C [27]: 0.18%
viability, T/C [28]: 0.14%
viability, T/C [29]: 0.16%
viability, T/C [30]: 0.4%
viability, T/C [31]: 0.18%
viability, T/C [32]: 0.15%
viability, T/C [33]: 0.18%
viability, T/C [34]: 0.24%
viability, T/C [35]: 0.61%
viability, T/C [36]: 0.7%
viability, T/C [37]: 0.14%
viability, T/C [38]: 0.13%
viability, T/C [39]: 0.21%
viability, T/C [40]: 0.2%
viability, T/C [41]: 0.15%
viability, T/C [42]: 0.17%

COc1ccc([C@@H](O)c2cc(-c3ncnc4cc(N5CCOCC5)ccc34)c(F)cc2Cl)nn1 + CN1CCN(c2cc(C(=O)Nc3cc4cc(-c5cnn(C)c5)ccc4cn3)ccn2)CC1
IC50 [1]: > 10000 nM
IC50 [2]: 2720 nM
IC50 [3]: < 31.6 nM
IC50 [4]: < 31.6 nM
IC50 [5]: < 31.6 nM
IC50 [6]: < 31.6 nM
viability, T/C [7]: 93.8%
viability, T/C [8]: 107%
viability, T/C [9]: 101%
viability, T/C [10]: 90.8%
viability, T/C [11]: 73.5%
viability, T/C [12]: 54.9%
viability, T/C [13]: 74.8%
viability, T/C [14]: 79.1%
viability, T/C [15]: 71.5%
viability, T/C [16]: 66.5%
viability, T/C [17]: 47.4%
viability, T/C [18]: 28.6%
viability, T/C [19]: 1.76%
viability, T/C [20]: 1.85%
viability, T/C [21]: 2.44%
viability, T/C [22]: 1.05%
viability, T/C [23]: 1.4%
viability, T/C [24]: 2.15%
viability, T/C [25]: 0.11%
viability, T/C [26]: 0.11%
viability, T/C [27]: 2.22%
viability, T/C [28]: 0.08%
viability, T/C [29]: 0.07%
viability, T/C [30]: 0.06%
viability, T/C [31]: 0.09%
viability, T/C [32]: 0.15%
viability, T/C [33]: 0.16%
viability, T/C [34]: 0.14%
viability, T/C [35]: 0.11%
viability, T/C [36]: 0.72%
viability, T/C [37]: 2.12%
viability, T/C [38]: 0.13%
viability, T/C [39]: 0.29%
viability, T/C [40]: 0.16%
viability, T/C [41]: 0.99%
viability, T/C [42]: 0.16%

COc1c(OCCCN2CCOCC2)ccc2c3n(c(=NC(=O)c4cnc(N)nc4)nc12)CCN3 + CN1CCN(c2cc(C(=O)Nc3cc4cc(-c5cnn(C)c5)ccc4cn3)ccn2)CC1
IC50 [1]: 95.1 nM
IC50 [2]: 21.7 nM
IC50 [3]: < 3.16 nM
IC50 [4]: < 3.16 nM
IC50 [5]: < 3.16 nM
IC50 [6]: < 3.16 nM
viability, T/C (second compound 0.0316 µM, first compound 0.00316 µM): 83.4%
viability, T/C (second compound 0.0316 µM, first compound 0.01 µM): 84.3%
viability, T/C [7]: 77.2%
viability, T/C [8]: 46.6%
viability, T/C [9]: 21.7%
viability, T/C [10]: 6.87%
viability, T/C (second compound 0.1 µM, first compound 0.00316 µM): 65.2%
viability, T/C (second compound 0.1 µM, first compound 0.01 µM): 63.8%
viability, T/C [13]: 43.4%
viability, T/C [14]: 18.1%
viability, T/C [15]: 9.33%
viability, T/C [16]: 4.74%
viability, T/C (second compound 0.316 µM, first compound 0.00316 µM): 1.28%
viability, T/C (second compound 0.316 µM, first compound 0.01 µM): 0.96%
viability, T/C [19]: 1.21%
viability, T/C [20]: 1.68%
viability, T/C [21]: 0.41%
viability, T/C [22]: 0.17%
viability, T/C (second compound 1 µM, first compound 0.00316 µM): 0.15%
viability, T/C (second compound 1 µM, first compound 0.01 µM): 0.11%
viability, T/C [25]: 0.55%
viability, T/C [26]: 0.06%
viability, T/C [27]: 1.84%
viability, T/C [28]: 1.26%
viability, T/C (second compound 3.16 µM, first compound 0.00316 µM): 0.21%
viability, T/C (second compound 3.16 µM, first compound 0.01 µM): 0.99%
viability, T/C [31]: 2.18%
viability, T/C [32]: 0.08%
viability, T/C [33]: 1.65%
viability, T/C [34]: 0.11%
viability, T/C (second compound 10 µM, first compound 0.00316 µM): 0.1%
viability, T/C (second compound 10 µM, first compound 0.01 µM): 1.86%
viability, T/C [37]: 0.15%
viability, T/C [38]: 0.42%
viability, T/C [39]: 0.43%
viability, T/C [40]: 0.62%

CC(=O)O[C@H]1C(=O)[C@@]2(C)[C@H]([C@H](OC(=O)c3ccccc3)[C@]3(O)C[C@H](OC(=O)[C@H](O)[C@@H](NC(=O)c4ccccc4)c4ccccc4)C(C)=C1C3(C)C)[C@]1(OC(C)=O)CO[C@@H]1C[C@@H]2O
viability, T/C (compound 0.0316 µM): 5.98% and 7.51%
viability, T/C (compound 0.1 µM): 6.42% and 5.84%
viability, T/C (compound 0.316 µM): 4.95% and 6.85%
viability, T/C (compound 1 µM): 5.57% and 6.35%
viability, T/C (compound 3.16 µM): 7.38% and 11.4%
viability, T/C (compound 10 µM): 16% and 15.4%
IC50 (curve of compound): < 31.6 nM
